This is an account of results in patent US10544143B2, “4-azaindole compounds” (BRISTOL-MYERS SQUIBB COMPANY, priority 2017, dated 2020).

Structures are written as SMILES. Like-named read-outs stand apart in the source and are kept apart here. Where only a bound is given, the exact number is not on record here.

For one assay, the target named is human TLR7 (Homo sapiens (Human), UniProt Q9NYK1). Description: TLR7 inhibition reporter assay (HEK-Blue SEAP). Type of assay: cell-based. In general terms: In a reporter assay the amount or activity of a reporter protein is the signal.
The target of another assay is human TLR8 (Homo sapiens (Human), UniProt Q9NR97). Description: TLR8 inhibition reporter assay (HEK-Blue SEAP).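 Note: SEAP driven by IFN-β minimal promoter carrying NF-κB and AP-1 sites, compounds dosed 0.05 nM to 50 µM for 22 h, inhibition scaled between agonist-plus-DMSO and reference-inhibitor wells.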 The note with it: read-out: TLR8 IC50.
The next assay deals with human TLR9 (Homo sapiens (Human), UniProt Q9NR96). Nature of the assay: TLR9 inhibition reporter assay (HEK-Blue SEAP).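 Note: SEAP driven by an IFN-β minimal promoter with NF-κB and AP-1 sites, read after 22 h, compounds dosed 0.05 nM–50 µM, inhibition scaled between agonist plus DMSO and reference-inhibitor wells.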 The note with it: read-out: TLR9 IC50.
Where [1] appears, read: HEK-Blue cells overexpressing human TLR7, SEAP reporter, gardiquimod 7.5 μM.
Setting [2] is: HEK-Blue cells overexpressing human TLR8, SEAP reporter, R848 15.9 μM.
Where [3] appears, read: HEK-Blue cells overexpressing human TLR9, SEAP reporter, ODN2006 5 nM.
Where [4] appears, read: HEK-Blue cells overexpressing human TLR7, gardiquimod 7.5 μM stimulation, SEAP reporter.
[5] abbreviates: HEK-Blue cells overexpressing human TLR8, R848 15.9 μM stimulation, SEAP reporter.
[6] abbreviates: HEK-Blue cells overexpressing human TLR9, ODN2006 5 nM stimulation, SEAP reporter.
Setting [7] is: HEK-Blue human TLR7 cells, gardiquimod 7.5 μM.
Setting [8] is: HEK-Blue human TLR8 cells, R848 15.9 μM.
Setting [9] is: HEK-Blue human TLR9 cells, ODN2006 5 nM.

Chain of human TLR7 (Q9NYK1 27-1049): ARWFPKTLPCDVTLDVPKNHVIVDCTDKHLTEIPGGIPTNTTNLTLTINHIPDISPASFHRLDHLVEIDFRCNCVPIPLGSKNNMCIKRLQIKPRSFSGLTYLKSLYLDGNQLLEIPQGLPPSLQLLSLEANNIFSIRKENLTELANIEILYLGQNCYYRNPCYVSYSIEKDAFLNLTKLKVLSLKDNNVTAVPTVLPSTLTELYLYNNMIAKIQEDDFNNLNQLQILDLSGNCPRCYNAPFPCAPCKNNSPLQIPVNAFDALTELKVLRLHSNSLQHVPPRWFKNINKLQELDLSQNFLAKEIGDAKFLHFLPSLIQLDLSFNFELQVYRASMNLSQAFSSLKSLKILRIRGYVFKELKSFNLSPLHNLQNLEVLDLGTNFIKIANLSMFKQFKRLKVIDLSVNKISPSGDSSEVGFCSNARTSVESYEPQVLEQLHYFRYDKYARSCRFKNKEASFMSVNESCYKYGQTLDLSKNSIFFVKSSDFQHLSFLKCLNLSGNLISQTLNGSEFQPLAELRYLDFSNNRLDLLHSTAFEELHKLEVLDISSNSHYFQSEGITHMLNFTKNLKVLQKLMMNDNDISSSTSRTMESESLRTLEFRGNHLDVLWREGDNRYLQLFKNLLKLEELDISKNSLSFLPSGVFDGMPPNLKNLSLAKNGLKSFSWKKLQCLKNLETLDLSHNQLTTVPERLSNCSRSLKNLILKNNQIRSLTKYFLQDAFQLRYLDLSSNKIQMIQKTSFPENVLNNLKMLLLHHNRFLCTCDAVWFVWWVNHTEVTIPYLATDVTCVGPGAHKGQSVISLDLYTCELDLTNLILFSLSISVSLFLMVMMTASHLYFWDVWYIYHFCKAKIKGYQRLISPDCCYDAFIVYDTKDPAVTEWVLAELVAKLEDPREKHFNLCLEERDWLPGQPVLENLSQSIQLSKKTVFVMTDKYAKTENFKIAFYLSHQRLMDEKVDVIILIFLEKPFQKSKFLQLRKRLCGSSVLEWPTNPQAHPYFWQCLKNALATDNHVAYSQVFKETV
Chain of human TLR8 (Q9NR97 27-1041): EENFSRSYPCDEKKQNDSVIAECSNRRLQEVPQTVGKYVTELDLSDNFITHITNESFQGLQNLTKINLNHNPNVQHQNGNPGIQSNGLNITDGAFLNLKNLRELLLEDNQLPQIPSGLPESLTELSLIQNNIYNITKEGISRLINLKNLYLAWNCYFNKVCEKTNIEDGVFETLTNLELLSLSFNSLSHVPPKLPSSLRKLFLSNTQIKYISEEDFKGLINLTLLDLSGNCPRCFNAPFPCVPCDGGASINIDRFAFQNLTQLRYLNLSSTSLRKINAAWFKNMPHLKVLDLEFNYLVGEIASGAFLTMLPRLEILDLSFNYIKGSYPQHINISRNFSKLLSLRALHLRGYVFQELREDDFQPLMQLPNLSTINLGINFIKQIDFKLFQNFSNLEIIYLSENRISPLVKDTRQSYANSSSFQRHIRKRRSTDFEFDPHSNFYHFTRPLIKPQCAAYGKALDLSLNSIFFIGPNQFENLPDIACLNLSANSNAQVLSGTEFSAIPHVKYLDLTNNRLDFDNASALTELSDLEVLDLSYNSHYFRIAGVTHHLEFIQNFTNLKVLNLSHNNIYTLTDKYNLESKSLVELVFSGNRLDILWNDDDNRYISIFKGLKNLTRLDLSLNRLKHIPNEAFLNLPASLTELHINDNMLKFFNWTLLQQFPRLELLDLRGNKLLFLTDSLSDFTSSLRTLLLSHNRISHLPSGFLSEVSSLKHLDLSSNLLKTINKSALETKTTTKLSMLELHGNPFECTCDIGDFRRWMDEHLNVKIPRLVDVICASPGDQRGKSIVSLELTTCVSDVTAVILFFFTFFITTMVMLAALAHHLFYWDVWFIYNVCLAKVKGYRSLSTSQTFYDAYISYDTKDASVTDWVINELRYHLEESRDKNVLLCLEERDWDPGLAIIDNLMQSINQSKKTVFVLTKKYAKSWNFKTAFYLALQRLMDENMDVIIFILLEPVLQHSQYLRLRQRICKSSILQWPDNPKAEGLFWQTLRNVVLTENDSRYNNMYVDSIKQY
Chain of human TLR9 (Q9NR96 26-1032): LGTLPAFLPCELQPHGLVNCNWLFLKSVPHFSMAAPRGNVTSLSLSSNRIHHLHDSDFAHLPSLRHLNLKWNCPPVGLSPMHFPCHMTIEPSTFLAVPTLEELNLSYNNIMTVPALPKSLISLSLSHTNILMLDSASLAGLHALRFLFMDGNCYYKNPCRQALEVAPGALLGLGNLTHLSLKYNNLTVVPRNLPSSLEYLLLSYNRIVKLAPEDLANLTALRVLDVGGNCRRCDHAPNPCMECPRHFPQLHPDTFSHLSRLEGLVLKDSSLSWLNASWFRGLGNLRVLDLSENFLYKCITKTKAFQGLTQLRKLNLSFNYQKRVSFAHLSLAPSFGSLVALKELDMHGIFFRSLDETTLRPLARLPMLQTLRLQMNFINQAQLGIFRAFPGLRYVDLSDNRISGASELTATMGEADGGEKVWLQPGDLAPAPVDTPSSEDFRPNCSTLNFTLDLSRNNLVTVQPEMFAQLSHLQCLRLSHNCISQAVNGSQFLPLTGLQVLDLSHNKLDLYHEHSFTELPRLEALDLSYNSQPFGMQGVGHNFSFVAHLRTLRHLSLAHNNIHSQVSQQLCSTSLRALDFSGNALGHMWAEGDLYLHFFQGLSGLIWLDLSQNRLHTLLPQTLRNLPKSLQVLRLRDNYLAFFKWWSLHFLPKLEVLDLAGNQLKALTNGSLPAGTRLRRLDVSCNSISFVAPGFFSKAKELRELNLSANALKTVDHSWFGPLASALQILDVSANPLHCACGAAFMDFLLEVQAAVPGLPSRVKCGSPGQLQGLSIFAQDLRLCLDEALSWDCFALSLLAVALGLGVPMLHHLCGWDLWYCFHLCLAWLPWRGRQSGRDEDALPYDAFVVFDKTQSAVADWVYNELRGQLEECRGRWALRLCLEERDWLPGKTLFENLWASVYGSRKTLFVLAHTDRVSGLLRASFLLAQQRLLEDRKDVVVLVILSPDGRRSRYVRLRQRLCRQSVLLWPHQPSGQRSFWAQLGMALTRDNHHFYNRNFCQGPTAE

For the compound `Cc1cc(-c2[nH]c3ccc(-c4cnn(C5CCNCC5)c4)nc3c2C(C)C)cn2ncnc12` [Example 735], the IC50 (in general, the concentration at which inhibition is half-maximal) stood at 25 nM at human TLR7 (setting [1]), 61 nM at human TLR8 (setting [2]) and 262 nM on human TLR9 (setting [3]).
Regarding `CC(C)c1c(-c2cn(C)c3ncncc23)[nH]c2ccc(C3CCC(NC4CCOCC4)CC3)nc12` (stereo not drawn) [Example 305], the IC50 against human TLR7 (setting [4]) was determined as 4 nM; at human TLR8 (setting [5]), 16 nM; on human TLR9 (setting [6]), 8240 nM.
`Cc1c(-c2[nH]c3ccc(N4C[C@H](C)N(C(=O)CCN(C)C)[C@@H](C)C4)nc3c2C(C)C)cn2ncnc2c1C` [Example 761]: the IC50 was found to be 9 nM against human TLR7 (setting [1]), 14 nM on human TLR8 (setting [2]) and 8170 nM at human TLR9 (setting [3]).
Consider `COc1cc(-c2[nH]c3ccc(C4CCC(N5CCC(F)C5)CC4)nc3c2C(C)C)cn2ncnc12` (stereo not drawn) [Example 1072], for which the IC50 worked out at 2.9 nM at human TLR7 (setting [7]), 35 nM at human TLR8 (setting [8]) and 5840 nM at human TLR9 (setting [9]).
For the compound `Cc1cc(-c2[nH]c3ccc(C4CCN(CC#N)CC4)nc3c2C(C)C)cn2ncnc12` [Example 553], the IC50 stood at 0.63 nM against human TLR7 (setting [1]), 3.2 nM on human TLR8 (setting [2]) and 537 nM on human TLR9 (setting [3]).
Take `COc1ccc2[nH]c(-c3cc(OC)c4ncnn4c3)c(C(C)C)c2n1` [Example 601, 6-(3-isopropyl-5-methoxy-1H-pyrrolo[3,2-b]pyridin-2-yl)-8-methoxy-[1,2,4]triazolo[1,5-a] pyridine]: the IC50 is 46 nM against human TLR7 (setting [1]), 46 nM on human TLR8 (setting [2]) and over 50000 nM at human TLR9 (setting [3]).
Turning to `Cc1c(-c2[nH]c3ccc(N4C[C@@H](C)N(CCC(N)=O)C[C@@H]4C)nc3c2C(C)C)cn2ncnc2c1C` [Example 848], the IC50 on human TLR7 (setting [7]) turned out to be 1.2 nM; on human TLR8 (setting [8]), 2.2 nM; on human TLR9 (setting [9]) it was 17500 nM.
For `Cc1c(-c2[nH]c3ccc(N4CCN(C5COC5)C[C@@H]4C)nc3c2C(C)C)cn2ncnc2c1C` [Example 813] the same measures were 3.7 nM, 9.1 nM and over 50000 nM.
For `Cc1c(-c2[nH]c3ccc(N4CCC(N(C)CCS(C)(=O)=O)CC4)nc3c2C(C)C)cn2ncnc2c1C` [Example 998] the same measures were 1.9 nM, 0.44 nM and 20000 nM.
On to `Cc1c(-c2[nH]c3ccc(N4C[C@H](C)N(CCC(N)=O)[C@@H](C)C4)nc3c2C(C)C)cn2ncnc2c1C` [Example 758], for which the values for the IC50 against human TLR7 (setting [1]), on human TLR8 (setting [2]) and at human TLR9 (setting [3]) were 0.89 nM, 1.7 nM and 18200 nM, respectively.
Regarding `CC(C)c1c(-c2cn(C)c3ncncc23)[nH]c2ccc(C3CCC(NCCS(C)(=O)=O)CC3)nc12` (stereo not drawn) [Example 304], the figures for the IC50 against human TLR7 (setting [4]), at human TLR8 (setting [5]) and at human TLR9 (setting [6]) were 0.53 nM, 1.8 nM and 1070 nM, respectively.
For `COCCNC1CCC(c2nc3c(C(C)C)c(-c4cc(OC)c5ncnn5c4)[nH]c3cc2C)CC1` (stereo not drawn) [Example 327] the same measures were over 3120 nM, over 3120 nM and over 50000 nM.
With `CCN(CC)CC(=O)N1CCN(c2ccc3[nH]c(-c4cn5ncnc5c(C)c4C)c(C(C)C)c3n2)[C@@H](C)C1` [Example 902], the IC50 is 1.1 nM at human TLR7 (setting [7]), 1.4 nM at human TLR8 (setting [8]) and 15800 nM on human TLR9 (setting [9]).
On to `COc1cc(-c2[nH]c3ccc(C4CCC(N(CC#N)C5COC5)CC4)nc3c2C(C)C)cn2ncnc12` (stereo not drawn) [Example 277], for which the values for the IC50 at human TLR7 (setting [4]), on human TLR8 (setting [5]) and at human TLR9 (setting [6]) were 0.4 nM, 1.6 nM and 1380 nM, respectively.
On to `Cc1c(-c2[nH]c3ccc(N4C[C@@H](C)N(CC(N)=O)C[C@H]4C)nc3c2C(C)C)cn2ncnc2c1C` [Example 800], for which the IC50 on human TLR7 (setting [7]) is 20 nM; at human TLR8 (setting [8]), 26 nM; on human TLR9 (setting [9]), over 50000 nM.
Take `Cc1c(-c2[nH]c3ccc(CCC4CN(C5COC5)C4)nc3c2C(C)C)cn2ncnc2c1C` [Example 687]: the IC50 was 39 nM against human TLR7 (setting [1]), 16 nM on human TLR8 (setting [2]) and 5770 nM on human TLR9 (setting [3]).
`Cc1c(-c2[nH]c3ccc(C4CCC(N(C)C)CC4)nc3c2C(C)C)cn2ncnc2c1C` (stereo not drawn) [Example 356]: the figures for the IC50 on human TLR7 (setting [4]), on human TLR8 (setting [5]) and on human TLR9 (setting [6]) were 2.8 nM, 5.1 nM and 2860 nM, respectively.
For the compound `COc1cc(-c2[nH]c3ccc(C4CN(C(C)C)CCO4)nc3c2C(C)C)cn2ncnc12` (stereo not drawn) [Example 660, 4-isopropyl-2-(3-isopropyl-2-(8-methoxy-[1,2,4]triazolo[1,5-a]pyridin-6-yl)-1H-pyrrolo[3,2-b]pyridin-5-yl)morpholine], the IC50 on human TLR7 (setting [1]) was 3.3 nM; at human TLR8 (setting [2]) it was 15 nM; at human TLR9 (setting [3]) it was 14400 nM.
`Cc1c(-c2[nH]c3ccc(N4CCN(C(=O)CN(C(C)C)C(C)C)C[C@@H]4C)nc3c2C(C)C)cn2ncnc2c1C` [Example 903]: the IC50 was found to be 3 nM at human TLR7 (setting [7]), 4.1 nM on human TLR8 (setting [8]) and 35200 nM at human TLR9 (setting [9]).
With `COc1cc(-c2[nH]c3ccc(C4CCC(NCc5cnc(C)cn5)CC4)nc3c2C(C)C)cn2ncnc12` (stereo not drawn) [Example 196], the IC50 against human TLR7 (setting [4]) was 1.7 nM; on human TLR8 (setting [5]) it was 10 nM; at human TLR9 (setting [6]) it was 712 nM.
For `Cc1c(-c2[nH]c3ccc(N4CCNCC4)nc3c2C(C)C)cn2ncnc2c1C` [Example 2, 6-(3-isopropyl-5-(piperazin-1-yl)-1H-pyrrolo[3,2-b]pyridin-2-yl)-7,8-dimethyl-[1,2,4]triazolo[1,5-a]pyridine] the same measures were 1.7 nM, 0.27 nM and 7320 nM.
For the compound `Cc1c(-c2[nH]c3ccc(N4CCN(CC5(C)COC5)CC4)nc3c2C(C)C)cn2ncnc2c1C` [Example 97], the IC50 is 28 nM against human TLR7 (setting [4]), 4.1 nM on human TLR8 (setting [5]) and over 50000 nM at human TLR9 (setting [6]).
On to `Cc1c(-c2[nH]c3ccc(C4CCC(N5CC6(CCO6)C5)CC4)nc3c2C(C)C)cn2ncnc2c1C` (stereo not drawn) [Example 1057], for which the IC50 at human TLR7 (setting [7]) turned out to be 0.81 nM; on human TLR8 (setting [8]), 1.7 nM; on human TLR9 (setting [9]) it was 2700 nM.
`COc1cc(-c2[nH]c3ccc(N4CCN(C(C)C)CC4)nc3c2C(C)C)cn2ncnc12` [Example 92]: the figures for the IC50 against human TLR7 (setting [4]), at human TLR8 (setting [5]) and on human TLR9 (setting [6]) were 0.87 nM, 0.78 nM and 3990 nM, respectively.
With `Cc1c(-c2[nH]c3ccc(C4CCC(N(C)CC(N)=O)CC4)nc3c2C(C)C)cn2ncnc2c1C` (stereo not drawn) [Example 501], the IC50 against human TLR7 (setting [1]) turned out to be 6.3 nM; on human TLR8 (setting [2]), 16 nM; on human TLR9 (setting [3]), 9550 nM.
For `Cc1cc(-c2[nH]c3ccc(C4CNCCO4)nc3c2C(C)C)cn(C)c1=O` (stereo not drawn) [Example 675], in that order: 9.7 nM, 4.6 nM and 14500 nM.
For `Cc1c(-c2[nH]c3ccc(CCC4CN(C5COC5)C4)nc3c2C(C)C)cn2ncnc2c1C` [Example 686], in that order: over 3120 nM, over 3120 nM and over 50000 nM.
As for `Cc1c(-c2[nH]c3ccc(N4C[C@@H]5CC4CN5)nc3c2C(C)C)cn2ncnc2c1C` [Example 984], the IC50 against human TLR7 (setting [7]) came out at 1 nM; on human TLR8 (setting [8]) it was 0.85 nM; at human TLR9 (setting [9]), 3430 nM.
Regarding `CNCC(=O)N1CCN(c2ccc3[nH]c(-c4cn5ncnc5c(C)c4C)c(C(C)C)c3n2)CC1` [Example 830], the 50% inhibitory concentration (IC50) against human TLR7 (setting [7]) is 0.62 nM; on human TLR8 (setting [8]) it was 0.63 nM; on human TLR9 (setting [9]), 7440 nM.
Turning to `CC(C)c1c(-c2cn(C)c3ncccc23)[nH]c2ccc(N3CC(NCC(=O)N(C)C)C3)nc12` [Example 37], the values for the IC50 against human TLR7 (setting [4]), on human TLR8 (setting [5]) and at human TLR9 (setting [6]) were 1270 nM, 465 nM and over 50000 nM, respectively.
Consider `Cc1c(-c2[nH]c3ccc(C4CCC(N5CC(S(C)(=O)=O)C5)CC4)nc3c2C(C)C)cn2ncnc2c1C` (stereo not drawn) [Example 445], for which the IC50 amounted to 1.5 nM at human TLR7 (setting [1]), 3.6 nM on human TLR8 (setting [2]) and 4890 nM on human TLR9 (setting [3]).
Consider `Cc1cc(-c2[nH]c3ccc(C4CCC(N5CC6(COC6)C5)CC4)nc3c2C(C)C)cn2ncnc12` (stereo not drawn) [Example 281], for which the IC50 against human TLR7 (setting [4]) came out at 0.48 nM; on human TLR8 (setting [5]), 1.7 nM; at human TLR9 (setting [6]), 880 nM.
For `CCn1cc(-c2[nH]c3ccc(C4CCC(N5CC6(COC6)C5)CC4)nc3c2C(C)C)c2cccnc21` (stereo not drawn) [Example 290], in that order: 2.1 nM, 6.3 nM and 425 nM.
Turning to `COc1cc(-c2[nH]c3ccc(C4CNCCO4)nc3c2C(C)C)cn2ncnc12` (stereo not drawn) [Example 676], the values for the half-inhibitory concentration (IC50) against human TLR7 (setting [1]), at human TLR8 (setting [2]) and on human TLR9 (setting [3]) were 1 nM, 2.5 nM and 5720 nM, respectively.
Take `CCN1CC2(C1)CN(c1ccc3[nH]c(-c4cc(OC)c5ncnn5c4)c(C(C)C)c3n1)C2` [Example 1018]: the IC50 against human TLR7 (setting [7]) was found to be 1.7 nM; at human TLR8 (setting [8]), 8.9 nM; at human TLR9 (setting [9]) it was 2780 nM.
Regarding `Cc1c(-c2[nH]c3ccc(N4CCN(C(=O)CN5CC6(C5)CS(=O)(=O)C6)CC4)nc3c2C(C)C)cn2ncnc2c1C` [Example 951], the IC50 on human TLR7 (setting [7]) is 6.5 nM; at human TLR8 (setting [8]) it was 1.5 nM; on human TLR9 (setting [9]), over 50000 nM.
For `Cc1c(-c2[nH]c3ccc(N4CCN(C(=O)CNC(C)C)C[C@@H]4C)nc3c2C(C)C)cn2ncnc2c1C` [Example 827], the IC50 at human TLR7 (setting [7]) amounted to 0.46 nM; on human TLR8 (setting [8]) it was 0.34 nM; on human TLR9 (setting [9]), 4850 nM.
As for `Cc1c(-c2[nH]c3ccc(N4CCN(C(=O)CNCCO)CC4)nc3c2C(C)C)cn2ncnc2c1C` [Example 158], the IC50 on human TLR7 (setting [4]) came to 2.3 nM; on human TLR8 (setting [5]), 0.96 nM; at human TLR9 (setting [6]), 8260 nM.
On to `CNC1CCC(c2ccc3[nH]c(-c4cn(C)c5ncncc45)c(C(C)C)c3n2)CC1` (stereo not drawn) [Example 1078], for which the IC50 on human TLR7 (setting [7]) was 9.8 nM; on human TLR8 (setting [8]) it was 216 nM; at human TLR9 (setting [9]), over 50000 nM.
